Experimental data published in the NIST ThermoML archive (doi:10.1016/j.jct.2013.09.039).
Numbers after ± are expanded uncertainties.

Experiment: xn = mol fraction of the nth substance listed
Conditions: Liquid, Vibrating tube method

CCOC(=O)OCC [diethyl carbonate] + Cc1ccc(C)cc1
mass density [kg/m3]
Conditions	100 kPa	5000 kPa	10000 kPa	20000 kPa	30000 kPa	40000 kPa
298.15 K, x1 = 0.1014	–	–	–	882 ± 2	888.2 ± 2	894.3 ± 2
298.15 K, x1 = 0.1346	–	–	–	885.9 ± 2	892.3 ± 2	898.4 ± 2
298.15 K, x1 = 0.1949	–	–	–	892.7 ± 2	899.3 ± 2	905.3 ± 2
298.15 K, x1 = 0.2767	–	–	–	902.5 ± 2	909.1 ± 2	915.3 ± 2
298.15 K, x1 = 0.386	–	–	–	915 ± 2	921.9 ± 2	928.2 ± 2
298.15 K, x1 = 0.4858	–	–	–	926.3 ± 2	933.2 ± 2	939.6 ± 2
298.15 K, x1 = 0.5444	–	–	–	933.2 ± 2	940.2 ± 2	946.6 ± 2
298.15 K, x1 = 0.5923	–	–	–	938.5 ± 2	945.8 ± 2	952.3 ± 2
298.15 K, x1 = 0.6718	–	–	–	947.8 ± 2	955.1 ± 2	961.8 ± 2
298.15 K, x1 = 0.7676	–	–	–	959 ± 2	966.3 ± 2	973.1 ± 2
298.15 K, x1 = 0.8313	–	–	–	966.4 ± 2	973.8 ± 2	980.8 ± 2
298.15 K, x1 = 0.9044	–	–	–	974.7 ± 2	982.2 ± 2	989.1 ± 2
308.15 K, x1 = 0.1014	858.7 ± 2	862.8 ± 2	866.6 ± 2	873.8 ± 2	880.4 ± 2	886.6 ± 2
308.15 K, x1 = 0.1346	862.5 ± 2	866.7 ± 2	870.4 ± 2	877.7 ± 2	884.5 ± 2	890.8 ± 2
308.15 K, x1 = 0.1949	868.9 ± 2	873 ± 2	876.5 ± 2	884.2 ± 2	891.1 ± 2	897.5 ± 2
308.15 K, x1 = 0.2767	878.2 ± 2	882.4 ± 2	886.5 ± 2	893.8 ± 2	900.8 ± 2	907.3 ± 2
308.15 K, x1 = 0.386	890.1 ± 2	894.5 ± 2	898.5 ± 2	906.2 ± 2	913.3 ± 2	919.9 ± 2
308.15 K, x1 = 0.4858	900.7 ± 2	905.2 ± 2	909.2 ± 2	917.2 ± 2	924.5 ± 2	931.2 ± 2
308.15 K, x1 = 0.5444	907.2 ± 2	911.7 ± 2	916 ± 2	923.9 ± 2	931.3 ± 2	938.1 ± 2
308.15 K, x1 = 0.5923	912.6 ± 2	916.9 ± 2	921.4 ± 2	929.4 ± 2	936.8 ± 2	943.7 ± 2
308.15 K, x1 = 0.6718	921.3 ± 2	925.7 ± 2	930.3 ± 2	938.4 ± 2	945.9 ± 2	952.9 ± 2
308.15 K, x1 = 0.7676	931.8 ± 2	936.5 ± 2	940.9 ± 2	949.2 ± 2	957 ± 2	964.1 ± 2
308.15 K, x1 = 0.8313	939 ± 2	943.6 ± 2	948.1 ± 2	956.6 ± 2	964.2 ± 2	971.6 ± 2
308.15 K, x1 = 0.9044	946.7 ± 2	951.5 ± 2	956.2 ± 2	964.5 ± 2	972.6 ± 2	979.9 ± 2
